“Also recorded” adds a separate entry of the source.
B1: NP245: engineered DLL3 construct, DLL3 residues 27-492 with PD-L1 signal peptide/transmembrane helix; SEQ ID NO: 35 (protein)
chain: MRIFAVFIFMTYWHLLNAAGVFELQIHSFGPGPGPGAPRSPCSARLPCRLFFRVCLKPGLSEEAAESPCALGAALSARGPVYTEQPGAPAPDLPLPDGLLQVPFRDAWPGTFSFIIETWREELGDQIGGPAWSLLARVAGRRRLAAGGPWARDIQRAGAWELRFSYRARCEPPAVGTACTRLCRPRSAPSRCGPGLRPCAPLEDECEAPLVCRAGCSPEHGFCEQPGECRCLEGWTGPLCTVPVSTSSCLSPRGPSSATTGCLVPGPGPCDGNPCANGGSCSETPRSFECTCPRGFYGLRCEVSGVTCADGPCFNGGLCVGGADPDSAYICHCPPGFQGSNCEKRVDRCSLQPCRNGGLCLDLGHALRCRCRAGFAGPRCEHDLDDCAGRACANGGTCVEGGGAHRCSCALGFGGRDCRERADPCAARPCAHGGRCYAHFSGLVCACAPGYMGARCEFPVHPDGASALPAAPPGLRPGDPQRYLLPLAHPPNERTHLVILGAILLCLGVALTFIFRHMGGGSGGGSAYPYDVPDYAAYPYDVPDYA
B2: NP249: engineered DLL3 construct, DLL3 residues 27-492 with CD73 SP/GPI-anchor motif; SEQ ID NO: 39, 46 (protein)
chain: MCPRAARAPATLLLALGAVLWPAAGAAGVFELQIHSFGPGPGPGAPRSPCSARLPCRLFFRVCLKPGLSEEAAESPCALGAALSARGPVYTEQPGAPAPDLPLPDGLLQVPFRDAWPGTFSFIIETWREELGDQIGGPAWSLLARVAGRRRLAAGGPWARDIQRAGAWELRFSYRARCEPPAVGTACTRLCRPRSAPSRCGPGLRPCAPLEDECEAPLVCRAGCSPEHGFCEQPGECRCLEGWTGPLCTVPVSTSSCLSPRGPSSATTGCLVPGPGPCDGNPCANGGSCSETPRSFECTCPRGFYGLRCEVSGVTCADGPCFNGGLCVGGADPDSAYICHCPPGFQGSNCEKRVDRCSLQPCRNGGLCLDLGHALRCRCRAGFAGPRCEHDLDDCAGRACANGGTCVEGGGAHRCSCALGFGGRDCRERADPCAARPCAHGGRCYAHFSGLVCACAPGYMGARCEFPVHPDGASALPAAPPGLRPGDPQRYLGGSSTGSHCHGSFSLIFLSLWAVIFVLYQ
B3: NP244: engineered DLL3 construct, DLL3 residues 27-492 with EGFR signal peptide/transmembrane helix; SEQ ID NO: 34 (protein)
chain: MRPSGTAGAALLALLAALCPASRAAGVFELQIHSFGPGPGPGAPRSPCSARLPCRLFFRVCLKPGLSEEAAESPCALGAALSARGPVYTEQPGAPAPDLPLPDGLLQVPFRDAWPGTFSFIIETWREELGDQIGGPAWSLLARVAGRRRLAAGGPWARDIQRAGAWELRFSYRARCEPPAVGTACTRLCRPRSAPSRCGPGLRPCAPLEDECEAPLVCRAGCSPEHGFCEQPGECRCLEGWTGPLCTVPVSTSSCLSPRGPSSATTGCLVPGPGPCDGNPCANGGSCSETPRSFECTCPRGFYGLRCEVSGVTCADGPCFNGGLCVGGADPDSAYICHCPPGFQGSNCEKRVDRCSLQPCRNGGLCLDLGHALRCRCRAGFAGPRCEHDLDDCAGRACANGGTCVEGGGAHRCSCALGFGGRDCRERADPCAARPCAHGGRCYAHFSGLVCACAPGYMGARCEFPVHPDGASALPAAPPGLRPGDPQRYLSIATGMVGALLLLLVVALGIGLFMRRRHIVRKHMGGGSGGGSAYPYDVPDYAAYPYDVPDYA

Experiments:
Assay type in all cases: cell-based, human
H1299 cells [1] = experiment: FACS detection of engineered DLL3 on the surface of transfected H1299 cells (Example 4); settings: for expression level of DLL3 on the cell surface / percent positive (DLL3-positive cells): H1299 cells transfected with construct; for expression level of DLL3 on the cell surface: fluorescently labeled anti-DLL3 antibody, FACS, compared to wild-type DLL3 (NP116, NP127)
Description: Each of the six engineered DLL3 constructs ([…]) and two different wild-type DLL3 constructs (NP116 and NP127) was separately introduced to human non-small cell lung carcinoma, H1299 cells (also known as NCI-H1299 or CRL-5803) by transfection to analyze the expression of engineered DLL3. H1299 cells were then stained with fluorescently labeled anti-DLL3 antibodies and analyzed by fluorescence-activated cell sorting (FACS) to detect DLL3 expression. Panels A2-G2 in FIG. 8B, and NP116, NP127, NP244-NP249, and NP268 in FIG. 8C show the amount of DLL3 expressed on the cell surface corresponding to panels A1-G1 in FIG. 8A. […] Specifically, NP249 and NP247 increased percent positive to ˜80% and ˜94%, respectively (FIG. 8C).

H1299 cells [2] = experiment: in vitro cell killing assay with anti-DLL3-PBD (Example 4); settings: H1299 cells transfected with construct, treated with anti-DLL3-PBD; compared to NP116 or NP127; FIG. 8D
Experimental: Next, in vitro cell killing assay was performed to determine the ability of anti-DLL3 antibodies conjugated with a cytotoxic payload (anti-DLL3-PBD) to induce cytotoxicity. The anti-DLL3-PBD was introduced to H1299 cells transfected with NP247 (G1 in FIG. 8A), NP249 (D1 in FIG. 8A), NP116 (wild-type control), or NP127 (wild-type control).

H1299 cells [3] = experiment: number of copies of anti-DLL3 antibody bound to DLL3 on the cell surface (quantification bead standard curve)
Experimental: Next, a physical number of copies of anti-DLL3 antibody bound to DLL3 expressed on the cell surface was assessed. H1299 cells were seeded into 96 well plate. 24 hours after seeding, H1299 cells were transfected with nanoplasmid vectors comprising NP116 (wild-type control), NP247 (with a single DLL3 epitope in the CD8 scaffold), or NP298 (with two DLL3 epitopes in the CD8 scaffold) via lipofectamine according to the manufacture's protocols. H1299 cells were then stained with fluorescently labeled anti-DLL3 antibodies for FACS analysis. Cells and commercially available beads for epitope quantification were then stained with an anti-DLL3 secondary antibody conjugated to Alexa Fluor® 647 (AF647). H1299 cells were subsequently analyzed on a BD Biosciences FACSAria IIu (FIGS. 10A-10C). The number of epitopes were calculated by comparing the cell's expression to the quantification bead standard curve (FIGS. 10B-10C).
Each of NP247 and NP298 constructs and wild-type DLL3 construct (NP116) was separately introduced to H1299 cells by transfection to analyze the expression of engineered DLL3. […] H1299 cells stably expressing wild-type or engineered DLL3 and commercially available beads for epitope quantification were then stained with an anti-DLL3 secondary antibody conjugated to Alexa Fluor® 647 (AF647). H1299 cells were subsequently analyzed on a BD Biosciences FACSAria IIu. […]

H1299 cells [4] = experiment: cell killing assay, CellTiter Glo 2.0 (Example 7); settings: treated with anti-DLL3-PBD, 72 hours, compared to NP116, FIG. 13B
Experimental: Next, H1299 cells stably expressing WT or engineered DLL3 were seeded 5,000 cells/well in 96 well plates. 24 hours after seeding, H1299 cells were treated with a titration of either an unconjugated anti-DLL3 antibody or an anti-DLL3 antibody conjugated to a PBD toxin (anti-DLL3-PBD). 72 hours after antibody treatment, cell viability was assessed using the CellTiter Glo 2.0 assay kit and analyzed on a Promega GloMax Navigator.

Molecule | expression level of DLL3 on the cell surface (H1299 cells [1]) | percent positive (DLL3-positive cells) (H1299 cells [1]; FIG. 8C) | mean fluorescence intensity (H1299 cells [1]; compared to DLL3 wild-type or the DLL3 stable cell line, FIG. 8C) | loss of viability of cells expressing the construct (H1299 cells [2]) | increase in copy number of anti-DLL3 antibodies compared to cells expressing NP116 (H1299 cells [3]; Example 5, H1299 cells transfected with nanoplasmid vectors, FIG. 10C) | increase in copy number of anti-DLL3 antibodies compared to cells expressing NP116 (H1299 cells [3]; Example 7, FIG. 13A) | loss of viability / susceptibility to cell death of cells expressing the construct (H1299 cells [4])
NP246: engineered DLL3 construct, DLL3 residues 27-492, CD8a SP/CD28 transmembrane helix; SEQ ID NO: 36 | increased the expression level of DLL3 | – | – | – | – | – | –
NP247: engineered DLL3 construct, DLL3 residues 27-254, CD8a hinge, CD28 transmembrane helix; SEQ ID NO: 37 | increased the expression level of DLL3 | ~94% | significantly higher mean fluorescence intensity | substantial loss in viability; also recorded: substantial loss of viability | 13 fold | 21 fold | may be more susceptible to cell death; also recorded: substantial loss of viability
B1 | increased the expression level of DLL3 | – | – | – | – | – | –
B2 | increased the expression level of DLL3 | ~80% | – | substantial loss in viability; also recorded: substantial loss of viability | – | – | –
B3 | did not increase the expression level of DLL3 | – | – | – | – | – | –

— patent publication US20250144249A1, “METHODS USING SURFACE-EXPRESSIBLE ACTIVATABLE EPITOPES TO LOCALIZE AND/OR TREAT DISEASED CELLS” (EARLI Inc., priority 2022, published 2025)
